In ChEMBL document CHEMBL2346507 (Bioorg Med Chem, 2013):
≈ marks a conversion by molar mass, not a printed value.

Legend:
[1] = Metabolic stability in human liver microsomes at 1 umol/L; type: ADME, Microsome; details: read-out: Stability
[2] = Lipophilicity, log D of the compound at pH 7.4; type: physicochemical; details: buffer
[3] = Metabolic stability in mouse liver microsomes at 1 umol/L; type: ADME, Microsome; details: read-out: Stability
[4] = Thermodynamic solubility of the compound in Japanese pharmacopoeia disintegration solution 2 containing bile acid at pH 6.8 after 18 hrs by HPLC analysis; type: physicochemical; details: read-out: Therm_solubility
[5] = Tmax in Crl:CD (SD) albino rat at 0.5 mg/kg, po; type: ADME, organism-based; parameters: dose 0.5 mg/kg, route oral; details: in vivo
[6] = Cmax in cynomolgus monkey at 0.5 mg/kg, po; type: ADME, organism-based, Macaca fascicularis; parameters: dose 0.5 mg/kg, route oral; details: in vivo
[7] = Total plasma clearance in cynomolgus monkey at […], iv; type: ADME, organism-based, Macaca fascicularis; parameters: dose 0.25 mg/kg, route intravenous
[8] = Mean residence time in Crl:CD (SD) albino rat at 0.5 mg/kg, po; type: ADME, organism-based; parameters: dose 0.5 mg/kg, route oral; details: in vivo
[9] = Drug uptake in athymic BALB/cAcl-nu/nu mouse lung xenografted with human A549 cells at 1 mg/kg, po measured at 1 hr by LC/MS/MS analysis; type: ADME, organism-based; parameters: dose 1 mg/kg, route oral; details: read-out: Drug uptake
[10] = AUC (0 to 24 hrs) in Crl:CD (SD) albino rat at 0.5 mg/kg, po; type: ADME, organism-based; parameters: time < 24 hr, dose 0.5 mg/kg, route oral; details: plasma
[11] = Tmax in cynomolgus monkey at 0.5 mg/kg, po; type: ADME, organism-based, Macaca fascicularis; parameters: dose 0.5 mg/kg, route oral; details: in vivo
[12] = AUC (0 to 48 hrs) in cynomolgus monkey at […], iv; type: ADME, organism-based, Macaca fascicularis; parameters: time < 48 hr, dose 0.25 mg/kg, route intravenous; details: plasma
[13] = Volume of distribution at steady state in cynomolgus monkey at […], iv; type: ADME, organism-based, Macaca fascicularis; parameters: dose 0.25 mg/kg, route intravenous; details: in vivo, read-out: Vdss
[14] = Mean residence time in cynomolgus monkey at 0.5 mg/kg, po; type: ADME, organism-based, Macaca fascicularis; parameters: dose 0.5 mg/kg, route oral; details: in vivo
[15] = Cmax in Crl:CD (SD) albino rat at 0.5 mg/kg, po; type: ADME, organism-based; parameters: dose 0.5 mg/kg, route oral; details: in vivo
[16] = Drug uptake in athymic BALB/cAcl-nu/nu mouse lung xenografted with human A549 cells at 1 mg/kg, po measured at 8 hrs by LC/MS/MS analysis; type: ADME, organism-based; parameters: dose 1 mg/kg, route oral; details: read-out: Drug uptake
[17] = Plasma concentration in athymic BALB/cAcl-nu/nu mouse xenografted with human A549 cells at 1 mg/kg, po measured at 8 hrs by LC/MS/MS analysis; type: ADME, organism-based; parameters: dose 1 mg/kg, route oral
[18] = Oral bioavailability in cynomolgus monkey at 0.5 mg/kg; type: ADME, organism-based, Macaca fascicularis; details: in vivo
[19] = Total plasma clearance in Crl:CD (SD) albino rat at […], iv; type: ADME, organism-based; parameters: dose 0.25 mg/kg, route intravenous
[20] = AUC (0 to 48 hrs) in cynomolgus monkey at 0.5 mg/kg, po; type: ADME, organism-based, Macaca fascicularis; parameters: time < 48 hr, dose 0.5 mg/kg, route oral; details: plasma
[21] = Oral bioavailability in Crl:CD (SD) albino rat at 0.5 mg/kg; type: ADME, organism-based; details: in vivo
[22] = Volume of distribution at steady state in Crl:CD (SD) albino rat at […], iv; type: ADME, organism-based; parameters: dose 0.25 mg/kg, route intravenous; details: in vivo, read-out: Vdss
[23] = AUC (0 to 24 hrs) in Crl:CD (SD) albino rat at […], iv; type: ADME, organism-based; parameters: time < 24 hr, dose 0.25 mg/kg, route intravenous; details: plasma
[24] = Plasma concentration in athymic BALB/cAcl-nu/nu mouse xenografted with human A549 cells at 1 mg/kg, po measured at 1 hr by LC/MS/MS analysis; type: ADME, organism-based; parameters: dose 1 mg/kg, route oral

Cc1cc(C(=O)Nc2cc(Oc3ccc4nc(NC(=O)C5CC5)cn4n3)ccc2F)n(C)n1 showed a microsomal CLint at 1 µM [1] of 9 µL/min/mg, a logD [2] of 2.21 and a microsomal CLint at 1 µM [3] of 54 µL/min/mg. For the same molecule, the solubility thermodynamic at 18 h [4] was 14 µg/mL (≈ 31.1 µM).
For Cc1cc(C(=O)Nc2cccc(Oc3ccc4nc(NC(=O)C5CC5)cn4n3)c2)n(C)n1, the microsomal CLint at 1 µM [1] was 6 µL/min/mg, the logD [2] was 2.28 and the microsomal CLint at 1 µM [3] was 43 µL/min/mg. The solubility thermodynamic at 18 h [4] was 3.7 µg/mL (≈ 8.58 µM).
Molecule Cc1cc(C(=O)Nc2cc(Oc3ccc4nc(NC(=O)C5CC5)cn4n3)ccc2C)n(C)n1 [TAK-593] has a Tmax [5] of 1.3 h, a microsomal CLint at 1 µM [1] of 2 µL/min/mg and a Cmax [6] of 129 ng/mL. It also gave a clearance [7] of 3.18 mL/min/kg, an MRT [8] of 3.3 h and a concentration at 1 h [9] of 242 ng/g. It also gave an AUC(0-t) at 24 h [10] of 226 ng·h/mL, a Tmax [11] of 2.8 h and an AUC(0-t) at 48 h [12] of 1310 ng·h/mL. The Vd [13] was 1.03 L/kg, the MRT [14] was 11 h and the Cmax [15] was 56 ng/mL. For the same molecule, the logD [2] was 2.24, the microsomal CLint at 1 µM [3] was 31 µL/min/mg and the concentration at 8 h [16] was under 15 ng/g. It also gave a concentration at 8 h [17] of under 3 ng/mL, a solubility thermodynamic at 18 h [4] of 38 µg/mL (≈ 85.3 µM) and a bioavailability [18] of 57.6%. For the same molecule, the clearance [19] was 7.3 mL/min/kg, the AUC(0-t) at 48 h [20] was 1510 ng·h/mL and the bioavailability [21] was 19.8%. The Vd [22] was 0.471 L/kg, the AUC(0-t) at 24 h [23] was 571 ng·h/mL and the concentration at 1 h [24] was 451 ng/mL.
